# Test results taken from US20070112025A1, “Use of kynurenine-3-hydroxylase inhibitors for the preparation of medicaments for the treatment of l-dopa induced movement disorders, dyskinesias, drug addiction, pain and cataract” (priority 2003, published 2007).
# Legend:
# MTPP treated monkeys = conditions: NMDA antagonist in MTPP treated monkeys; cited from earlier work
# 6-OHDA lesioned rats = assay: Rotational response to chronic L-DOPA in 6-OHDA lesioned rats (wearing-off model); format: in vivo, rat
# Method: In 6-OHDA lesioned rats, a commonly used model of PD, motor response to L-DOPA decreases after chronic treatment. This effect mimics the “wearing-off” phenomenon observed in parkinsonian patients under chronic treatment with L-DOPA (Boldry et al., Brain Res 1995 Sep. 18; 692: 259-64).
# In this rat model we evaluated the effect of Ro-618048 (40 mg/kg; ip) and of 2-(3,4-Dichloro-benzoyl)-cyclopropanecarboxylic acid (UPF-648, 50 mg/kg; ip), on the rotational response to chronic L-DOPA (28 days treatment, […]; ip) in comparison to MK-801 (0.1 mg/kg; ip). […]
# To measure rotational behavior, rats were placed in circular cages and tethered to an automated rotometer. The number of complete turns performed in each 5-min period was recorded by a computer. […]
# Rats were injected intraperitoneally twice a day at 8:00 and 16:00 for 28 consecutive days with either a combination of L-DOPA methylester (50 mg/kg) and the peripheral decarboxylase inhibitor benserazide (12.5 mg/kg) or saline. […] The duration of the response was measured by the time between the first 5 min interval when the rate of turning attained half its eventual average value and the first interval when the rate again declined to half its average values.
# Data were analyzed by analysis of variance followed by Duncan's new multiple range test for post-hoc comparisons.
# glutamate release = conditions: KYNA 30-100 nM; without modifying ionotropic or metabotropic GLU receptor function; cited from earlier work
# Male Wistar rats = assay: Cocaine-induced behavioral sensitization (locomotor activity); format: in vivo, rat
# Method: We evaluated the effect of Ro-618048 (40 mg/kg; ip) and of 2-(3,4-Dichloro-benzoyl)-cyclopropanecarboxylic acid (UPF-648, 50 mg/kg; ip) in a model of cocaine-induced behavioral sensitization in rat.
# Male Wistar rats (Charles River, Kingston, N.Y.) weighing 200-250 g upon arrival were used. Locomotor activity was measured in sixteen identical metal wire hanging cages each measuring 36 cm (L)×25 cm (W)×20 cm (H). Each cage contained two sets of infrared emitter-detector photocells positioned along the long axis 1-cm above the grid floor and 8 cm from the front and back of the cage. Background noise was provided by a white noise generator. Movement within the cages produced photocell interruptions, which were automatically recorded by an IBM-compatible computer.
# Animals were habituated to the locomotor activity chambers for 2-3 consecutive days before the experiment. Rats received 5 daily IP injections of cocaine (15 mg/kg) or saline and either the Kyn-3OHase inhibitor Ro-618048 (40 mg/kg ip) or its vehicle and locomotor activity was recorded for 3 hours. Ten days after the last injection of cocaine or saline (day 15), the animals were challenged with 15 mg/kg of cocaine in absence of Ro-618048 and locomotor activity was again monitored for 3 h. […]
# culture lenses = assay: In vitro models of cataract (culture lenses exposed to different insults)
# Method: (§1) We evaluated the effect of a treatment with inhibitors of Kyn-3OHase (Ro-618048) and of 2-(3,4-Dichloro-benzoyl)-cyclopropanecarboxylic acid (UPF-648, 50 mg/kg; ip) in an in vivo (chronic naphtalene treatment) and an in vitro models of cataract (culture lenses exposed to different insults).
# lens = assay: In vivo model of cataract (chronic naphtalene treatment)
# Method: as §1
# Wistar rats = assay: Tail flick test; format: in vivo, rat; conditions: 40 mg/kg ip, 90 min after administration; control 3.9±0.4 sec
# Method: (§2) We evaluated the analgesic activity of Ro-618048 (40 mg/kg; ip) and of 2-(3,4-Dichloro-benzoyl)-cyclopropanecarboxylic acid (UPF-648, 50 mg/kg; ip) in animal models of inflammatory and neuropathic pain (formalin test in mice) as well as in acute pain test (tail flick in rats).
# (§3) Adult male Wistar rats weighing 175-200 g, and Crl:CD-1 mice weighing 22-25 g at testing were used (Harlan-Nossan, Italy).
# The tail flick test measures the thermal nociceptive threshold defined as the latency required to elicit a tail response to heat. The test was performed according to the method described by D'Amour and Smith (1941, J. Pharmacol. Exp. Ther. 72:74-79) using an analgesiometer (U. Basile, Italy). Rats were treated ip with the drug (Ro-618048 40 mg/kg) or vehicle and 90 min after, each animal was placed on a platform and the tail was exposed to a focused beam of radiant heat approximately 3 cm from the tip. The beam light intensity was adjusted to produce a reaction latency of 3-5 sec in control rats. The thermal nociceptive threshold was defined as the latency required to elicit a tail response. A 20 sec cut-off was used to prevent tissue damage.
# Tail Flick Test. The latency was defined as the interval of time (sec) between the onset of the thermal stimulus and the flick of the tail. Data were evaluated by analysis of variance followed by Dunnett's t-test.
# Crl:CD-1 mice = assay: Mice formalin test; format: in vivo, mouse; conditions: 40 mg/kg ip 15 min before formalin, p<0.05
# Method: as §2, §3
# The formalin test in mouse is a procedure used to model neurogenic inflammation and continuous pain (Shibata et al., 1989, Pain 38: 347-352) as well as some features of post-injury pain in man (Dallel et al., 1995, Pain. 61: 11-16).
# According to a modified protocol from Rosland et al., (1990, Pain 42: 235-242) mice were injected subcutaneously (s.c.) with 20 μl of 2.7% solution of formalin into the plantar surface of left hindpaw and placed immediately into clear PVC observation chambers (23×12×13 cm). Pain behavior was quantified by counting the cumulative licking time (sec) of the injected paw. Measurements were taken during the early phase (0-5 min) and late phase (30-40 min) after formalin injection (Tjolsen et al., 1992, Pain 51: 5-17). […]
# Mice Formalin test. […] Data were evaluated by analysis of variance followed by Dunnett's t-test.
# The cumulative licking time (sec) of the injected paw was recorded during the early phase (0-5 min) and late phase (30-40 min) after formalin injection.
# [1] = system: MPTP-treated cynomolgus (macaca fascicularis) monkeys; assay: L-DOPA induced dyskinesia model in parkinsonian monkeys; format: in vivo, cynomolgus monkey
# Method: The studies were performed in five to six female MPTP-treated cynomolgus (macaca fascicularis) monkeys (weighing 2.9 to 5.0 kg) with a stable parkinsonian syndrome and reproducible dyskinesias to L-Dopa. The animals were handled in accordance with the National Institute of Health Guide for the Care and Use of Laboratory Animals and all procedures were approved by the Institutional Animal Care Committee of Laval University. They were housed separately in observation cages and exposed to a 12 hour light/dark cycle (lights on 6.0 a.m.-6.0 p.m.) in a temperature controlled room, 23±1° C. They were fed once daily in the afternoon with pellets and fruits, and had free access to water.
# RO-618048 was administered alone and simultaneously with L-Dopa. In particular: • A) RO-618048 at increasing doses, 10, 30, 100 mg/kg was administered alone on three consecutive days and compared with vehicle administered before and after treatments. • B) RO-618048 at increasing doses, 10, 30, 100 mg/kg was given simultaneously with L-Dopa/benserazide on three consecutive days and compared with L-Dopa, which was also given on three consecutive days. During the interval between the treatments, to maintain priming, the animals received an oral treatment with L-Dopa/benserazide (100/25 mg; Prolopa.). Compounds
# RO-618048 at increasing doses, 10, 30, 100 mg/kg was suspended in 0.1% (vol/vol) Tween 80/sterile water and homogenized in a glass homogeniser and mixed overnight until administration, as a homogeneous suspension. The maximum volume of drug suspension administered by oral gavage (p.o) at each increasing dose was 10, 20 and 40 ml respectively. As a control, a suspension of 0.1% (vol/vol) Tween 80/sterile water was administered p.o. (2 ml/kg). L-Dopa methyl ester (Sigma, St. Louis, Mo.); always together with benserazide 50 mg, (Hoffmann-La Roche, Montreal, Quebec), at doses ranging between 25 to 30 mg/kg (based on the threshold concentration for each animal) was dissolved in 1 ml of 0.9% sterile saline and administered s.c. alone or in combination with RO-618048.
# The severity of dyskinesias was rated for the face, neck, trunk, arms and legs in the following way: None=0; Mild=1; Moderate=2; Severe=3, based on the assessment of the amplitude, interference with normal motor activity and the frequency of the abnormal movements, according to a scale which we have used in several published studies. The dyskinetic score obtained was the sum of the scores for all body segments for a maximal score of 21 points. The mean dyskinetic score for each animal has been calculated as the average of all the scores obtained for 3 hours or for the total duration of the effect of the drugs.
# The mean Parkinsonian scores and also the mean dyskinetic scores obtained for each monkey, during 3 hours or the total duration of the effect of a given drug, were analysed using the nonparametric Friedman's test followed by multiple comparisons based on Friedman rank sums.
# [2] = RO-618048 alone 10, 30, 100 mg/kg p.o., compared with vehicle
structure (smiles),measurement,setting,value
C[C@]12N[C@H](Cc3ccccc31)c1ccccc12 [MK801],L-DOPA induced dyskinesia,MTPP treated monkeys,reduced L-DOPA induced dyskinesia
same,decreased rotational response to L-DOPA (duration),"6-OHDA lesioned rats; MK801 0.1 mg/kg ip, 29th day after 28 days L-DOPA",similar
"O=C(O)c1cc(=O)c2ccccc2[nH]1 [KYNA, kynurenic acid]",glutamate release,glutamate release,strongly inhibits glutamate release
COc1ccc(S(=O)(=O)Nc2nc(-c3cccc([N+](=O)[O-])c3)cs2)cc1OC [Ro-618048],"increase of locomotor response to cocaine, fifth day vs first day","Male Wistar rats; Ro-618048 40 mg/kg IP with cocaine 15 mg/kg daily for 5 days, vehicle 20% higher",did not show any significant increase
same,increased locomotor activity response to cocaine challenge vs first day,"Male Wistar rats; challenge cocaine 15 mg/kg ten days after last injection, without Ro-618048, pretreated 40 mg/kg IP, vehicle 30% higher",did not
same,degree of opacification of the lens,culture lenses,reduce the degree of opacification of the lens
same,degree of opacification of the lens,lens,reduce the degree of opacification of the lens
same,tail flick response latency to noxious heat,Wistar rats,6.1 ± 0.4 s
same,"cumulative licking time, early phase (0-5 min)",Crl:CD-1 mice; control 106±4.39 sec,75 ± 5.5 s
same,"cumulative licking time, late phase (30-40 min)",Crl:CD-1 mice; control 123±12.8 sec,68 ± 14.3 s
same,reduction of dyskinetic response to L-Dopa,[1]; 30 mg/kg p.o. simultaneously with L-Dopa/benserazide (25 to 30 mg/kg),about 20%
same,reduction of dyskinetic response to L-Dopa,[1]; 100 mg/kg p.o. simultaneously with L-Dopa/benserazide (25 to 30 mg/kg),about 20%
same,Parkinsonian score,[1]; [2],did not have any effect
same,locomotor activity,[1]; [2],did not have any effect
same,effect on improvement of parkinsonism induced by L-Dopa,[1]; acute RO-618048 with L-Dopa,without any negative effect
same,decreased rotational response to L-DOPA (duration),"6-OHDA lesioned rats; Ro-618048 40 mg/kg ip, acute co-administration on 29th day after 28 days L-DOPA",reversed
"O=C(O)C1CC1C(=O)c1ccc(Cl)c(Cl)c1 (stereo not drawn) [UPF-648, 2-(3,4-Dichloro-benzoyl)-cyclopropanecarboxylic acid]",degree of opacification of the lens,culture lenses,reduce the degree of opacification of the lens
same,degree of opacification of the lens,lens,reduce the degree of opacification of the lens
